Earlier results as cited in patent US9458123B2, “Methods, pharmaceutical compositions, therapeutic systems, and compounds for treating B cell malignancies” (University of Rochester, priority 2012, dated 2016).

Target: Ubc13 and Uev1A (Homo sapiens, UniProt P61088+Q13404)
Conditions: previous studies; cited from earlier work

Chain of Ubc13 and Uev1A (P61088 whole entry, species assumed): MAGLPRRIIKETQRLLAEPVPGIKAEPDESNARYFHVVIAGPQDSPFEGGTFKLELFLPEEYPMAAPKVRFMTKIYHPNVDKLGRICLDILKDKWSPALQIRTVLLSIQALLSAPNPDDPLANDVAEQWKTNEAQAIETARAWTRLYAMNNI
Chain of Ubc13 and Uev1A (Q13404 whole entry, species assumed): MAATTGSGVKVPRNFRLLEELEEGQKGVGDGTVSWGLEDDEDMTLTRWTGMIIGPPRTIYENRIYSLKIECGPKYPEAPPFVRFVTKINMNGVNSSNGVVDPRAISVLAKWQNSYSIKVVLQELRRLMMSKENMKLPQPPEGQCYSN

C[C@@H](N)[C@@H](O)C/C=C\C/C=C\C/C=C\C/C=C\C/C=C\C/C=C\CCCCCC[C@H](O)[C@@H](C)N [leucettamol A]
complex formation between Ubc13 and Uev1A in vitro: inhibited
